The record followed here is US12186283B2, “Bismuth-thiol compositions and methods of use” (Microbion Corporation, priority 2018, dated 2025).

In one data set the test system is N. gonorrhoeae. Kind of data set: Agar dilution MIC (Example 11). Format: cell-based, Neisseria gonorrhoeae. The settings on record: QC isolate, ciprofloxacin-resistant and ceftriaxone non-susceptible isolates. In general terms: In agar dilution the substance is mixed into plates at graded concentrations.
Another data set relates to Acinetobacter baumannii. Kind of data set: Broth microdilution MIC (Example 11). Format: cell-based. The settings on record: A. baumannii MMX 3373; Sensitive. (In general: In broth dilution the organism is exposed to a series of concentrations in liquid medium.)
The next data set relates to M. avium. Kind of data set: MIC against CF isolates (Example 5). Format: cell-based. The settings on record: Mycobacterium avium, strain MAC101, M. avium, MAC reference strain, blood isolate from HIV patient.
For the next data set, the system named is Enterobacteriaceae. The experiment in a line: Broth microdilution MIC (Example 11), group statement. Format: cell-based. The settings on record: ATCC QC E. coli, ESBL-, KPC- and NDM-1-positive isolates.
Another data set has as its system Aspergillus spp. The experiment in a line: Broth microdilution MIC/MEC, mold (Example 13). The data set is classed as cell-based. The settings on record: for MEC (minimum effective concentration): read-out: MEC at 48 hr (MIC0 not observed).
Data set [1] in a line: Aerosol particle size distribution of nebulized suspensions (cascade impactor / APS).
A short description of data set [2]: Rat tolerance of BisEDT (inhalation, IV, oral). The settings on record: 100 μg/kg inhalation and IV and 250 μg/kg oral, single dose.
A short description of data set [3]: Rat single-dose PK: lung tissue BisEDT. The settings on record: for concentration at 24 h / concentration at 96 h: F344, rat, inhaled, 100 μg/kg.
Data set [4] deals with Burkholderia cepacia complex. The experiment in a line: Checkerboard FIC assay, BisEDT with CF agents (Example 10). The settings on record: agent alone, as observed during FIC testing. The data set is classed as cell-based, Burkholderia spp.
A further data set relates to Klebsiella pneumoniae. The experiment in a line: Broth microdilution MIC (Example 12).

SMILES strings stand for the structures. Converted amounts (≈) assume the structure as drawn. “And” between values parts separate entries of the source, which are not always exact repeats. Identical values can stand only once. Like-named read-outs stand apart in the source and are kept apart here.

In the case of `CC(S)C(C)S.[Bi]` (centres unmarked) [BisBDT, bismuth-2,3-butanedithiol], the “MIC values (range across isolates)” value with N. gonorrhoeae was 0.06 to 0.25 µg/mL; against Enterobacteriaceae it was 0.5 to 2 µg/mL. Further, the MIC in the data set on Acinetobacter baumannii was 0.5 µg/mL; against M. avium, 1 µg/mL; with Aspergillus spp. (24 h, A. flavus ATCC 22546, 24 hr, read-out: MIC0 24 hr (complete inhibition)), 1 µg/mL; in the data set on Aspergillus spp. (24 h, A. flavus ATCC 204304, 24 hr, read-out: MIC0 24 hr (complete inhibition)) it was 4 µg/mL; in the data set on Aspergillus spp. (24 h, A. flavus MMX 7935, 24 hr, read-out: MIC0 24 hr (complete inhibition)), 8 µg/mL; in the data set on Aspergillus spp. (24 h, A. fumigatus ATCC 204305, 24 hr, read-out: MIC0 24 hr (complete inhibition)), 8 µg/mL. Also, the MIC came to 2 µg/mL in the data set with Aspergillus spp. (24 h, A. fumigatus ATCC MYA-3626, 24 hr, read-out: MIC0 24 hr (complete inhibition)); 2 µg/mL with Aspergillus spp. (24 h, A. fumigatus MMX 5934, 24 hr, read-out: MIC0 24 hr (complete inhibition)); 2 µg/mL in the data set with Aspergillus spp. (24 h, A. fumigatus MMX 5939, 24 hr, read-out: MIC0 24 hr (complete inhibition)); 0.25 µg/mL with Aspergillus spp. (24 h, read-out: MIC0 24 hr (complete inhibition), A. terreus MMX 8229, 24 hr); 2 µg/mL with Aspergillus spp. (48 h, A. flavus ATCC 22546, 48 hr, read-out: MIC0 48 hr (complete inhibition)); 8 µg/mL with Aspergillus spp. (48 h, A. flavus MMX 7935, 48 hr, read-out: MIC0 48 hr (complete inhibition)). Moreover, the MIC in the data set with Aspergillus spp. (48 h, A. fumigatus ATCC MYA-3626, 48 hr, read-out: MIC0 48 hr (complete inhibition)) was determined as 4 µg/mL; in the data set with Aspergillus spp. (48 h, A. terreus MMX 8229, 48 hr, read-out: MIC0 48 hr (complete inhibition)), 1 µg/mL; with Aspergillus spp. (read-out: MIC0 48 hr (complete inhibition)), 2 µg/mL. The MEC (minimum effective concentration) is 4 µg/mL with Aspergillus spp. (48 h, A. flavus ATCC 204304, 48 hr); 4 µg/mL in the data set with Aspergillus spp. (48 h, A. fumigatus ATCC 204305, 48 hr); 4 µg/mL in the data set on Aspergillus spp. (48 h, A. fumigatus MMX 5934, 48 hr); 4 µg/mL with Aspergillus spp. (48 h, A. fumigatus MMX 5939, 48 hr). For the same compound, the MIC 24 hr in the data set on Aspergillus spp. (A. flavus ATCC 204304 (QC, Table 110), 24 hr) is 4 µg/mL; in the data set on Aspergillus spp. (A. fumigatus ATCC MYA-3626 (QC, Table 110), 24 hr) it was 2 µg/mL. Also, in the data set with Aspergillus spp. (A. flavus ATCC 204304 (QC, Table 110), 48 hr, footnote c not given, probably MEC), the “MIC 48 hr, marked with footnote c” value is listed as 4^c. Moreover, the MIC 48 hr against Aspergillus spp. (A. fumigatus ATCC MYA-3626 (QC, Table 110), 48 hr) is 4 µg/mL.
Consider `C1C[S][Bi]([S]CC[S][Bi]2[S]CC[S]2)[S]1` [BisEDT, bismuth-1,2-ethanedithiol], for which the “Particle Size (GSD)” value was 2.98 (1.8) μm in [1] (BisEDT Lot # ED268-1-11-01, formulation 25 mg/mL, APS); 2.83 (1.9) μm in data set [1] (BisEDT Lot # ED268-1-11-01, formulation 50 mg/mL, APS); 3.16 (1.70) μm in [1] (BisEDT Lot # ED268-1-11-01, formulation 75 mg/mL, APS); 3.53 (1.71) μm in data set [1] (BisEDT Lot # ED268-1-11-01, formulation 100 mg/mL, APS); 3.60 (1.71) μm in data set [1] (BisEDT Lot # ED268-1-11-01, formulation 100* mg/mL (asterisk not explained), APS); 1.65 (1.6) μm in data set [1] (BisEDT Lot # ED268-1-11-01 suspension, formulation 1 mg/mL, PARI LC PLUS nebulizer, APS). Further, the “Particle Size (GSD)” value in [1] (BisEDT Lot # XL-47-125, 300 mOsmol/kg vehicle, formulation 10 mg/mL) is 1.61 (1.65) μm; in [1] (BisEDT Lot # XL-47-125, 300 mOsmol/kg vehicle, formulation 50 mg/mL), 2.79 (1.69) μm; in [1] (BisEDT Lot # XL-47-125, 300 mOsmol/kg vehicle, formulation 100 mg/mL (two tests)) it was 2.90 (1.67) μm and 2.60 (1.65) μm. The same compound had an MMAD in data set [1] (exposure aerosols of the rat efficacy study, In-Tox Mercer Impactor) of 1.54 μm. Moreover, in data set [2], the tolerability entry was “tolerated”. Besides, the concentration at 24 h in data set [3] (lung fluid) came out at 123 µg/mL; in data set [3] (lung tissue) it was 4090 ng/g. The figures for the concentration at 96 h in data set [3] (lung fluid) and in [3] (lung tissue) were 78 µg/mL and 2600 ng/g, respectively. For the same compound, in data set [3] (rat, IV dosing), the “half-life of lung levels” value was “about 24 hour”. Besides, the “lung levels relative to inhalation group” value in data set [3] (rat, IV dosing 100 μg/kg) is recorded as less than 5%. Moreover, the lung levels entry in data set [3] (rat, oral dosing 250 μg/kg) is “no lung levels”. Further, the lung tissue half-life entry in [3] (rat, single inhalation dose (100 μg/kg lung deposited)) is on record as “about 4 days”. Further, the “Mean BisEDT Conc, lung at sacrifice” value is reported as 4.8 ng/g in data set [3] (rat, single inhaled dose 47 μg/kg, sac time 30 hr); 5.9 ng/g in data set [3] (rat, single inhaled dose 124 μg/kg, sac time 30 hr); 12.1 ng/g in data set [3] (rat, single inhaled dose 400 μg/kg, sac time 30 hr); 82.3 ng/g in data set [3] (rat, single inhaled dose 3000 μg/kg, sac time 24 hr).
For the compound `C[C@@H](O)[C@H]1C(=O)N2C(C(=O)O)=C(S[C@@H]3CN[C@H](C(=O)N(C)C)C3)[C@H](C)[C@H]12` [MEM], the MIC in [4] (B. cenocepacia isolate 0548) worked out at 4 µg/mL; in data set [4] (B. cenocepacia isolate 0813), 2 µg/mL; in data set [4] (B. cepacia isolate 0546) it was 4 µg/mL; in data set [4] (B. cepacia isolate 1793), 4 µg/mL; in [4] (B. multivorans isolate 1795) it was 4 µg/mL; with Klebsiella pneumoniae (K. pneumoniae ATCC BAA-1705, QC organism), 8 µg/mL (≈ 20.9 µM). The MIC against Klebsiella pneumoniae (Klebsiella pneumoniae ATCC BAA-1705, ESBL/KPC) was 8 µg/mL (≈ 20.9 µM); in the data set with Klebsiella pneumoniae (Klebsiella pneumoniae CDC 112, KPC), greater than 8 µg/mL; with Klebsiella pneumoniae (Klebsiella pneumoniae CDC 113, ESBL/KPC) it was greater than 8 µg/mL; against Klebsiella pneumoniae (Klebsiella pneumoniae CDC 115, ESBL/KPC) it was greater than 8 µg/mL; with Klebsiella pneumoniae (Klebsiella pneumoniae CDC 120, ESBL/KPC), greater than 8 µg/mL; in the data set on Klebsiella pneumoniae (Klebsiella pneumoniae CDC 126, ESBL/KPC) it was 4 µg/mL (≈ 10.4 µM). The MIC against Klebsiella pneumoniae (Klebsiella pneumoniae CDC 129, ESBL/KPC) is 8 µg/mL (≈ 20.9 µM); with Klebsiella pneumoniae (Klebsiella pneumoniae CDC 135, ESBL/VIM) it was 1 µg/mL (≈ 2.61 µM); in the data set with Klebsiella pneumoniae (Klebsiella pneumoniae CDC 138, ESBL/NDM), greater than 8 µg/mL; against Klebsiella pneumoniae (Klebsiella pneumoniae CDC 158, ESBL/NDM/OXA), greater than 8 µg/mL; against Klebsiella pneumoniae (Klebsiella pneumoniae MMX 9029, ESBL), 0.015 µg/mL (≈ 0.0391 µM).
